Read-outs that look alike come from different tables or passages of the source.
What was measured:
in vivo = experiment: in vivo; design: species or system mice
[1] = test system: IL-17 production in PBMCs from MS patients; type: cell-based, human; conditions: for IL-17 production in PBMCs from MS patients: activated with anti-CD3 for three or six days, different concentrations
Method: (§1) FIGS. 14A-14M show representative data for LLL12b suppression of human Th17 development and promotion of Treg development in CD4 T-cells from MS patients. FIGS. 14A, 14E, 14H, and 14K each shown representative data obtained in PBMCs from 22 treatment-naïve MS patients that were activated with αhCD3 plus rhIL-6 for 3 days, in the presence of 0.125 μM or 0.25 μM of LLL12b. DMSO was used as a vehicle control. IL-17 in supernatant was determined by ELISA. FIGS. 14B-14C, 14F, 14I, and 14L each shown representative data obtained in PBMCs from 22 treatment-naïve MS patients that were activated with αhCD3/CD28 plus rhTGFβ. rhIL-2 and RA for 3 days, in the presence of 0.125 μM of LLL12b. DMSO was used as vehicle control. CD25+FoxP3+CD4+ iTregs were determined by intracellular flow cytometry. Cells were gated CD45RA+CD4+ cells. […] IL-17 in each group was compared with one-way ANOVA. […] FIG. 14G the calculated IL-17/Treg ratio of each patient in LLL12b group and DMSO group and compared with Wilcoxon matched-pairs signed rank test. […] FIG. 14J the calculated percent decrease of IL-17/Treg ratio in LLL12b group compared to DMSO group. […] FIG. 14M patient numbers in different ranges of calculated percent decrease of IL-17/Treg.
FIGS. 12A-12B show representative data for the effect of a representative disclosed compound, LLL12b, on the production of proinflammatory cytokines in human peripheral blood mononuclear cells (PBMCs).
LLL12b reduces Teff/Treg ratio by suppressing human Th17 development and promoting Treg development of CD4 T cells from MS patients. Teff/Treg balance is critical for the normal function of the human immune system and increased Teff/Treg ratio favors autoimmunity. As IL-6/STAT3 signaling pathway is critical for the highly encephalitogenic Th17 cells while blocks the development of inducible Tregs (iTregs), we hypothesize that novel small molecule STAT3 inhibitor LLL12b will reduces Teff/Treg ratio by suppressing Th17 development and/or prompting iTreg development. Therefore, we determined the effects of LLL12b on IL-17 production and iTreg development of CD4 T cells from 22 treatment-naïve MS patients (FIGS. 14A-14M). Human PBMCs from 22 treatment-naïve MS patients were activated with αhCD3 for 3 days, in the presence of different concentrations of LLL12b or vehicle control (DMSO), IL-17 production in supernatants was determined by ELISA. As the myelin-reactive CD4 T cells in MS patients are predominantly from the memory T-cell compartment, we activated human PBMCs with αhCD3 to specifically activate effector/memory CD4 T cells.
To determine whether LLL12b treatment decreases Th17/Treg ratio in CD4 T cells from MS patients, the IL-17/Treg ratio of all 22 treatment-naïve MS patients treated with LLL12b was calculated and compared with those treated with DMSO (FIGS. 14G, 14J, and 14M). The data in Table 2 show the patient numbers in different ranges of percentage decrease of IL-17, percentage increase of iTregs or percentage decrease of IL-17/iTreg of 22 treatment-naïve MS patients treated with LLL12b compared to DMSO treatment.

[2] = test system: CD25+FoxP3+ iTregs of CD4 T cells from MS patients; experiment: iTreg development of CD4 T cells from MS patients (intracellular flow cytometry); type: cell-based, human
Method: as §1
Meanwhile, we determined the extent to which LLL12b promotes the development of iTregs of CD4 T cells from MS patients (FIGS. 14B-14C, 14F, 14I, and 14L). PBMCs from 22 treatment-naïve MS patients were activated with αhCD3/CD28 for 3 days, in the presence of TGFβ, IL-2 and trans-retinoic acid (iTreg differentiating condition). After 72 h of culture under iTreg differentiating condition, the total number of CD25+FoxP3+ iTregs in the CD4+CD45RA+ population increased from 40% in control group to 59% in the group treated with LLL12b.

[3] = test system: pSTAT3 in CD4 T cells from MS patients; experiment: Phosphorylation of STAT3 in CD4 T cells from MS patients (phospho flow cytometry); type: cell-based, human; conditions: 0.25 μM; αhCD3 plus rhIL-6 for 30 minutes; 6 patients
Method: FIGS. 13A-13C show representative data for the effect of LLL12b treatment on the phosphorylation status of STAT3 in CD4 T-cells obtained from MS patients. Briefly, PBMCs from treatment-naïve MS patients were activated with αhCD3 plus rhIL-6 for 30 minutes, in the presence of 0.25 μM of LLL12b or vehicle control (DMSO). pSTAT3 was determined by phospho flow cytometry. Cells were gated on CD4+ cells.
LLL12b inhibits the phosphorylation of STAT3 in CD4 T cells from MS patients. To determine whether LLL12b suppresses the phosphorylation of STAT3 in human CD4 T cells, PBMCs from 6 treatment-naïve MS patients were activated with αhCD3 plus rhIL-6 for 30 minutes, in the presence of 0.25 μM of LLL12b or vehicle control (DMSO). pSTAT3 was determined by phospho flow cytometry.

[4] = mouse, in vivo, mice, Intravenous 2 mg/kg
[5] = mouse, in vivo, mice, Oral 8 mg/kg
[6] = 0.125 μM, 22 treatment-naïve MS patients
[7] = of 22 treatment-naïve MS patients, compared to DMSO

NS(=O)(=O)c1cccc2c1C(=O)c1cccc(O)c1C2=O [LLL12]
Tmax (in vivo; mouse, in vivo): 5 to 10 min
time until cleared (in vivo; mouse, in vivo): ~60 min
AUC (in vivo; mouse, in vivo, ip, 20 mg/kg): 0.431 µM·h
AUC(0-inf) (in vivo; mouse, in vivo, ip, 20 mg/kg): 0.438 µM·h
Cmax (in vivo; mouse, in vivo, ip, 20 mg/kg): 922 nM
Tmax (in vivo; mouse, in vivo, ip, 20 mg/kg): 10 min
bioavailability (in vivo; mouse, in vivo, ip, 20 mg/kg): 29.1%
AUC (in vivo; mouse, in vivo, iv, 5 mg/kg): 0.373 µM·h
AUC(0-inf) (in vivo; mouse, in vivo, iv, 5 mg/kg): 0.377 µM·h
Cmax (in vivo; mouse, in vivo, iv, 5 mg/kg): 978 nM
Tmax (in vivo; mouse, in vivo, iv, 5 mg/kg): 10 min
bioavailability (in vivo; mouse, in vivo, iv, 5 mg/kg): 100%
time until cleared (in vivo; mouse, in vivo, po): about 30 minutes
AUC (in vivo; mouse, in vivo, po, 20 mg/kg): 0.0407 µM·h
Cmax (in vivo; mouse, in vivo, po, 20 mg/kg): 176 nM
Tmax (in vivo; mouse, in vivo, po, 20 mg/kg): 4.98 min
bioavailability (in vivo; mouse, in vivo, po, 20 mg/kg): 2.73%
IL-17 production in PBMCs from MS patients [1]: suppress IL-17 production

CN(C)C(=O)Oc1cccc2c1C(=O)c1cccc(S(N)(=O)=O)c1C2=O [LLL12b]
duration of sustained effective concentration (in vivo; mice, IV): about 4 hours
duration of sustained effective concentration (in vivo; mice, PO): about 8 hours
AUC(0-t) (in vivo; [4]): 892 ± 131 ng·h/mL
Vd (in vivo; [4]): 12.4 ± 2.89 L/kg
clearance (in vivo; [4]): 36.5 mL/min/kg
half-life (in vivo; [4]): 233 ± 27 min
Cmax (in vivo; mouse, in vivo, mice, Intravenous 2 mg/kg, read-out: Co/Cmax): 2880 ± 935 ng/mL
AUC(0-t) (in vivo; [5]): 1360 ± 396 ng·h/mL
half-life (in vivo; [5]): 461 ± 115 min
Cmax (in vivo; mouse, in vivo, mice, Oral 8 mg/kg, read-out: Co/Cmax): 278 ± 93 ng/mL
Tmax (in vivo; mouse, in vivo, mice, Oral 8 mg/kg, read-out: Tmax): 11.4 ± 5.4 min
bioavailability (in vivo; mouse, in vivo, mice, printed in the Intravenous 2 mg/kg column, read-out: F (relative bioavailability)): 38%
hIL-17 production ([1]; 0.125 μM and 0.25 μM, one MS patient, 3 days): suppressed hIL-17 production
IL-17 production in effector/memory human CD4 T cells [1, 6]: significantly suppressed IL-17 production
IL-17/Treg ratio ([1]; 22 treatment-naïve MS patients, compared to DMSO treated group): significantly lower
IL-17 production in PBMCs from MS patients [1]: suppress IL-17 production
patient numbers with % Decrease of IL-17 5-20% [1, 7]: 11
patient numbers with % Decrease of IL-17 20-40% [1, 7]: 7
patient numbers with % Decrease of IL-17/iTreg ratio 5-20% [1, 7]: 5
patient numbers with % Decrease of IL-17/iTreg ratio 20-40% [1, 7]: 13
patient numbers with % Decrease of IL-17/iTreg ratio <5% [1, 7]: 1
patient numbers with % Decrease of IL-17/iTreg ratio >40% [1, 7]: 3
patient numbers with % Decrease of IL-17 <5% [1, 7]: 1
patient numbers with % Decrease of IL-17 >40% [1, 7]: 3
iTreg development of CD4 T cells from MS patients [2, 6]: significantly promotes iTreg development
patient numbers with % Increase of iTregs 5-20% [2, 7]: 13
patient numbers with % Increase of iTregs 20-40% [2, 7]: 3
patient numbers with % Increase of iTregs <5% [2, 7]: 5
patient numbers with % Increase of iTregs >40% [2, 7]: 1
CD25+FoxP3+ iTregs in the CD4+CD45RA+ population ([2]; one MS patient, 72 h, iTreg differentiating condition, control group 40%): 59%
pSTAT3 expression in CD4 T cells from MS patients [3]: significantly suppresses pSTAT3 expression
